In ChEMBL document CHEMBL1124555, “9-Amino-1,2,3,4-tetrahydroacridin-1-ols: synthesis and evaluation as potential Alzheimer's disease therapeutics” (J Med Chem, 1989) one finds IC50, LD50 and Animals data, which are given here for 24 compounds.

Data set [1] has as its target Sodium-dependent dopamine transporter (Rattus norvegicus, UniProt P23977). The format is functional.
Description: Inhibition of the reuptake of dopamine in rat corpora striata.
A further data set can be described thus: in vivo. The settings on record: rat, ip.
In data set [2] the target is Norepinephrine transporter (Rattus norvegicus, UniProt Q9WTR4).
Chain of Norepinephrine transporter (Q9WTR4 whole entry): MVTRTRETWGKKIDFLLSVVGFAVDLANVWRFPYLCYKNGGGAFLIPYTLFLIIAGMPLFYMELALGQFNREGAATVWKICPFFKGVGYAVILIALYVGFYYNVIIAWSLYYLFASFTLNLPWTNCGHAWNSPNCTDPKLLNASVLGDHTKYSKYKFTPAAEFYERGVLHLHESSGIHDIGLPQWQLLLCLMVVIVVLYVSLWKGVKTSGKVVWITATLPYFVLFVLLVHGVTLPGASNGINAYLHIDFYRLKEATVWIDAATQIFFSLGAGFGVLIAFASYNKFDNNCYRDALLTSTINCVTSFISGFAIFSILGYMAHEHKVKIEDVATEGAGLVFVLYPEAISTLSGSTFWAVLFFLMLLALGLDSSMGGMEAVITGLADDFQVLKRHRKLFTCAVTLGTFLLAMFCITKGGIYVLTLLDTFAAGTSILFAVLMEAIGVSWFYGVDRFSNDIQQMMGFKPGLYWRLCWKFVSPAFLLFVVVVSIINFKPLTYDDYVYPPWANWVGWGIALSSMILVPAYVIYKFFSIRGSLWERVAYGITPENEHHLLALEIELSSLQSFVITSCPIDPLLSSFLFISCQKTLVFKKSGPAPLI
Description: Inhibition of norepinephrine reuptake in rat whole brains minus cerebellar
The target of data set [3] is Sodium-dependent serotonin transporter (Rattus norvegicus, UniProt P31652). The format is functional.
Chain of Sodium-dependent serotonin transporter (P31652 whole entry): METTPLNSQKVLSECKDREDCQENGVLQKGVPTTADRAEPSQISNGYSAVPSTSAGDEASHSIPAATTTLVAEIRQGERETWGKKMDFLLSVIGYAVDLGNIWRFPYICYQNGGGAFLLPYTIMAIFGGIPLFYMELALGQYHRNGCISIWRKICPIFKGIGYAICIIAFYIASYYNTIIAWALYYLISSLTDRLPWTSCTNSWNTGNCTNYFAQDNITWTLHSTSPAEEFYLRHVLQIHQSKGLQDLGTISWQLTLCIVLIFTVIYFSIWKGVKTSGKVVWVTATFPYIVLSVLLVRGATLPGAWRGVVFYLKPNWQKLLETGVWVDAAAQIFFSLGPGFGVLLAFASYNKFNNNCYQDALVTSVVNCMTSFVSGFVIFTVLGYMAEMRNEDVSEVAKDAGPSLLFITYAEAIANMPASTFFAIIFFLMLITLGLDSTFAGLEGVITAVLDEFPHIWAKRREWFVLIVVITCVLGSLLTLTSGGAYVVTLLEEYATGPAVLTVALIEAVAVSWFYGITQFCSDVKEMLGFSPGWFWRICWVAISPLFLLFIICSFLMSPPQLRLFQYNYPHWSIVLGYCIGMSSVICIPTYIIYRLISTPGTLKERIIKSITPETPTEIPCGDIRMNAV
Description: Inhibition of serotonin reuptake in rat whole brains without cerebellum
The target of the next data set is T1, Acetylcholinesterase (Rattus norvegicus, UniProt P37136).
T1 sequence (P37136 whole entry): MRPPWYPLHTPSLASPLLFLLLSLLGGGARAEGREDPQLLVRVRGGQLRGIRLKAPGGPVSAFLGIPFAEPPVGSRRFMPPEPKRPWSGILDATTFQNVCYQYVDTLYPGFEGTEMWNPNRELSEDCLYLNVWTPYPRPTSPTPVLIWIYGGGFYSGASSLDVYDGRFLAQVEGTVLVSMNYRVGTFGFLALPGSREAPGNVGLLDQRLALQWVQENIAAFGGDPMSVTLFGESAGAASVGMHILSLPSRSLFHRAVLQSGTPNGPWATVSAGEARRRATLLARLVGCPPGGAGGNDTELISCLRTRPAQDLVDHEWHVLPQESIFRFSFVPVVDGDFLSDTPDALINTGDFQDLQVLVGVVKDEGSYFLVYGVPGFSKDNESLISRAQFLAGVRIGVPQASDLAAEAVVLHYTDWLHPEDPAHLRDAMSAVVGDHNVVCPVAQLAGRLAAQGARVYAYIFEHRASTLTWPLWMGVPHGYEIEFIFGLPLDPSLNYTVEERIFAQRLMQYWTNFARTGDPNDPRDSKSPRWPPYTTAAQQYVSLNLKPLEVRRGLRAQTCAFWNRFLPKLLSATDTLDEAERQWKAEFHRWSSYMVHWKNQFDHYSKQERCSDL

The species named for data set [4] is Mus musculus. In kind it is functional. The settings on record: at 0.16 mg/kg.
Description: Reversal of scopolamine-induced memory impairment in mice at 0.16 mg/Kg administered subcutaneously.
Data set [5] is filed under the species Mus musculus. The format is functional. The settings on record: at 2.5 mg/kg.
Description: Reversal of scopolamine-induced memory impairment in mice at 2.5 mg/Kg administered subcutaneously.
Data set [6] is filed under the species Mus musculus. The format is functional. The settings on record: at 5 mg/kg.
Description: Reversal of scopolamine-induced memory impairment in mice at 5 mg/Kg administered subcutaneously.
For data set [7], the species on record is Mus musculus. In kind it is functional. The settings on record: at […].
Description: Reversal of scopolamine-induced memory impairment in mice at 0.31 mg/Kg administered subcutaneously.
For data set [8], the species on record is Mus musculus. In kind it is functional. The settings on record: at 1.25 mg/kg.
Description: Reversal of scopolamine-induced memory impairment in mice at 1.25 mg/Kg administered subcutaneously.
The species named for data set [9] is Mus musculus. The format is functional. The note with it: at 0.63 mg/kg.
Description: Reversal of scopolamine-induced memory impairment in mice at 0.63 mg/Kg administered subcutaneously.

Bounds are passed on as bounds.

Chain of Sodium-dependent dopamine transporter (P23977 whole entry): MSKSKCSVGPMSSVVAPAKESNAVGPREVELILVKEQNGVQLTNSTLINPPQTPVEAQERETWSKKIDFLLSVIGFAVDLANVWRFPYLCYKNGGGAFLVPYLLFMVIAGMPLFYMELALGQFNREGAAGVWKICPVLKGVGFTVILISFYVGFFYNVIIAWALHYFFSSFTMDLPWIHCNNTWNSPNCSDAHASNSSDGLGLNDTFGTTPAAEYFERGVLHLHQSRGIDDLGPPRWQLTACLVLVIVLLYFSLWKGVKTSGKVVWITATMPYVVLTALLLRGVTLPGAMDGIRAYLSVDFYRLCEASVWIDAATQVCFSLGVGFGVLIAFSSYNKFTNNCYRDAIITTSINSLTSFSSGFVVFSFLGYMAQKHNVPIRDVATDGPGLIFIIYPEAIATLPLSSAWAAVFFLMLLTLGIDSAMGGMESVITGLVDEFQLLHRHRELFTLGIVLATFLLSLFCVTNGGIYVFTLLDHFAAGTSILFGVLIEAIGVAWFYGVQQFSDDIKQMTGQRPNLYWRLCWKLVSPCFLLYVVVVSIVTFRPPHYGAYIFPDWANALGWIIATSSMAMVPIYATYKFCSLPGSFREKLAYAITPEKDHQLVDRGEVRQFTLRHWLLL
Description for Acetylcholinesterase: In vitro inhibition against acetylcholinesterase in rat striata.
Description for in vivo: Toxicity evaluated in rats after intraperitoneal administration.

As for `COc1ccc(CNc2c3c(nc4ccccc24)CCCC3O)cc1` (stereo not given), the IC50 – broadly, the point on the concentration scale where inhibition reaches its midpoint – in data set [1] amounted to 5.3 µM; in data set [2], 25 µM; in data set [3], 5 µM; against Acetylcholinesterase, 10.9 µM. In “in vivo”, the LD50 (in general, the dose at which mortality reaches 50%) is above 80 mg/kg.
`OC1CCCc2nc3cc(C(F)(F)F)ccc3c(NCc3ccccc3)c21` (stereo not given) came in with a 50% lethal dose (LD50) in “in vivo” above 80 mg/kg. The compound also registered an IC50 at Acetylcholinesterase of 68.2 µM.
As to `Nc1c2c(nc3cc(F)ccc13)CCCC2O` (stereo not given), the LD50 in “in vivo” is 40 mg/kg. In addition, the Animals in the data set listed under Mus musculus [4] worked out at 73%; in the data set filed under Mus musculus [5] it was 33%; in the data set filed under Mus musculus [6] it was 40%; in the data set listed under Mus musculus [7], 29%; in the data set listed under Mus musculus [8] it was 20%; in the data set filed under Mus musculus [9], 20%. Besides, the IC50 in data set [2] was above 10 µM; at Acetylcholinesterase it was 0.292 µM.
`OC1CCCc2nc3ccccc3c(NCc3cccc(Cl)c3)c21` (stereo not given): the LD50 in “in vivo” is above 80 mg/kg. This compound also returned a concentration for half-maximal inhibition (IC50) against Acetylcholinesterase of 13.3 µM.
As for `OC1CCCc2nc3ccccc3c(NCc3ccccc3Cl)c21` (stereo not given), the IC50 in [1] is 0.13 µM; in data set [2], 0.043 µM; in [3], 9.3 µM; against Acetylcholinesterase, 10.3 µM. The same compound showed an LD50 in “in vivo” above 80 mg/kg. Also, the Animals was 0% in the data set listed under Mus musculus [4]; 13% in the data set filed under Mus musculus [5]; 7% in the data set listed under Mus musculus [6]; 27% in the data set listed under Mus musculus [7]; 27% in the data set listed under Mus musculus [8]; 7% in the data set filed under Mus musculus [9].
As for `OC1CCCc2nc3cc(Cl)ccc3c(NCc3ccc(F)cc3)c21` (stereo not given), the half-inhibitory concentration (IC50) in data set [1] came out at 4.1 µM; in [2] it was 2.2 µM; in data set [3] it was 6.6 µM; against Acetylcholinesterase it was 0.823 µM. In “in vivo”, this compound had a 50% lethal dose (LD50) above 80 mg/kg. The Animals is listed as 13% in the data set listed under Mus musculus [4]; 0% in the data set filed under Mus musculus [5]; 0% in the data set listed under Mus musculus [6]; 7% in the data set listed under Mus musculus [7]; 7% in the data set filed under Mus musculus [8]; 7% in the data set filed under Mus musculus [9].
Take `COc1cccc(CNc2c3c(nc4ccccc24)CCCC3O)c1` (stereo not given): the IC50 was 2.1 µM in [1], 1.5 µM in data set [2], 6.2 µM in data set [3] and 21.1 µM against Acetylcholinesterase. In “in vivo”, this compound came in with an LD50 above 80 mg/kg. The Animals in the data set filed under Mus musculus [4], in the data set listed under Mus musculus [5], in the data set listed under Mus musculus [6], in the data set listed under Mus musculus [7], in the data set listed under Mus musculus [8] and in the data set listed under Mus musculus [9] was 0% throughout.
Take `OC1CCCc2nc3cc(Cl)ccc3c(NCc3ccccc3)c21` (stereo not given): the IC50 in [1] was found to be 1.3 µM; in data set [2] it was 0.82 µM; in [3], 15 µM; on Acetylcholinesterase it was 1.3 µM. In addition, in “in vivo”, the LD50 is above 80 mg/kg. Further, the Animals is given as 0% in the data set listed under Mus musculus [4]; 7% in the data set listed under Mus musculus [5]; 0% in the data set filed under Mus musculus [6]; 13% in the data set listed under Mus musculus [7]; 7% in the data set listed under Mus musculus [8]; 7% in the data set filed under Mus musculus [9].
Compound `CN(C)CCNc1c2c(nc3ccccc13)CCCC2O` (stereo not given) gave an LD50 in “in vivo” above 80 mg/kg. This compound also displayed an IC50 at Acetylcholinesterase of 7.68 µM.
On to `OC1CCCc2nc3ccccc3c(NCc3ccc(Cl)cc3)c21` (stereo not given), for which the IC50 turned out to be 9.8 µM in data set [1], 1.1 µM in data set [2], 5.7 µM in [3] and 27.2 µM against Acetylcholinesterase. The compound also displayed an LD50 in the data set “in vivo” above 80 mg/kg.
`OC1CCCc2nc3ccccc3c(NCCCC(c3ccc(F)cc3)c3ccc(F)cc3)c21` (stereo not given) came in with a 50% lethal dose (LD50) in the data set “in vivo” above 80 mg/kg. Also, the IC50 against Acetylcholinesterase stood at 87.8 µM.
As to `COc1ccccc1CNc1c2c(nc3ccccc13)CCCC2O` (stereo not given), the half-inhibitory concentration (IC50) in [1] turned out to be 0.72 µM; in data set [2], 4.8 µM; in [3] it was 9.8 µM; on Acetylcholinesterase, 36 µM. The compound further yielded an LD50 in the data set “in vivo” of 80 mg/kg. Further, the Animals in the data set listed under Mus musculus [4] came to 33%; in the data set filed under Mus musculus [5] it was 13%; in the data set listed under Mus musculus [6] it was 27%; in the data set listed under Mus musculus [7], 7%; in the data set listed under Mus musculus [8], 7%; in the data set listed under Mus musculus [9] it was 20%.
On to `OC1CCCc2nc3ccccc3c(NCCc3ccccc3)c21` (stereo not given), for which the IC50 in data set [1] turned out to be 4.7 µM; in [2] it was 1.4 µM; in data set [3] it was 7.7 µM; against Acetylcholinesterase, 3.39 µM. Moreover, the 50% lethal dose (LD50) in “in vivo” was above 80 mg/kg. Besides, the Animals was found to be 7% in the data set listed under Mus musculus [4]; 0% in the data set filed under Mus musculus [5]; 0% in the data set listed under Mus musculus [6]; 20% in the data set listed under Mus musculus [7]; 23% in the data set listed under Mus musculus [8]; 0% in the data set filed under Mus musculus [9].
Turning to `O=C(O)/C=C/C(=O)O.OC1CCCc2nc3ccccc3c(NCCCC(c3cccc(F)c3)c3cccc(F)c3)c21` (stereo not given), the LD50 in the data set “in vivo” was above 80 mg/kg. This compound returned an IC50 on Acetylcholinesterase of 63 µM.
As to `OC1CCCc2nc3ccccc3c(NCc3ccc(C(F)(F)F)cc3)c21` (stereo not given), the IC50 in data set [1] is 2.4 µM; in data set [2] it was 0.27 µM; in data set [3], 6.6 µM; against Acetylcholinesterase, 18.1 µM. Also, the LD50 in the data set “in vivo” is above 80 mg/kg. For the same compound, the Animals stood at 22% in the data set listed under Mus musculus [4]; 0% in the data set listed under Mus musculus [5]; 20% in the data set listed under Mus musculus [6]; 8% in the data set filed under Mus musculus [7]; 15% in the data set listed under Mus musculus [8]; 7% in the data set filed under Mus musculus [9].
In “in vivo”, `Nc1c2c(nc3ccccc13)CCC2O` (stereo not given) registered an LD50 above 80 mg/kg. Besides, the Animals came to 13% in the data set filed under Mus musculus [4]; 7% in the data set filed under Mus musculus [5]; 7% in the data set filed under Mus musculus [6]; 13% in the data set filed under Mus musculus [7]; 0% in the data set listed under Mus musculus [8]; 0% in the data set listed under Mus musculus [9]. Further, at Acetylcholinesterase, it took 5.97 µM to reach half-maximal inhibition (IC50).
With `O=C(O)/C=C/C(=O)O.OC1CCCc2nc3ccccc3c(NCc3c(F)c(F)c(F)c(F)c3F)c21` (stereo not given), the LD50 in “in vivo” is above 80 mg/kg. Also, the Animals in the data set listed under Mus musculus [4] was 7%; in the data set listed under Mus musculus [5], 0%; in the data set filed under Mus musculus [6], 20%; in the data set listed under Mus musculus [7] it was 7%; in the data set filed under Mus musculus [8] it was 13%; in the data set listed under Mus musculus [9] it was 7%. Moreover, the IC50 was determined as 11 µM in [2] and 12.6 µM against Acetylcholinesterase.
On to `O=C(O)/C=C/C(=O)O.OC1CCCc2nc3ccccc3c(NCc3cccs3)c21` (stereo not given), for which the IC50 turned out to be 2.4 µM in data set [1], 0.29 µM in data set [2], 20 µM in data set [3] and 15.3 µM against Acetylcholinesterase. This compound came in with an LD50 in the data set “in vivo” above 80 mg/kg.
With `OC1CCCc2nc3cc(F)ccc3c(NCc3ccccc3C(F)(F)F)c21` (stereo not given), the half-maximal inhibitory concentration (IC50) was found to be 0.31 µM in data set [1], 0.54 µM in [2], 20 µM in [3] and 20.1 µM against Acetylcholinesterase. This compound also came in with an LD50 in the data set “in vivo” above 80 mg/kg. The Animals in the data set filed under Mus musculus [4] was determined as 0%; in the data set filed under Mus musculus [5], 0%; in the data set filed under Mus musculus [6], 13%; in the data set filed under Mus musculus [7], 20%; in the data set filed under Mus musculus [8], 0%; in the data set filed under Mus musculus [9], 7%.
In the data set “in vivo”, `OC1CCCc2nc3ccccc3c(NCCCOc3ccccc3)c21` (stereo not given) came in with a median lethal dose (LD50) above 80 mg/kg. Further, the Animals in the data set listed under Mus musculus [4] stood at 0%; in the data set filed under Mus musculus [5] it was 7%; in the data set filed under Mus musculus [7] it was 0%; in the data set filed under Mus musculus [8], 13%; in the data set listed under Mus musculus [9], 0%. At Acetylcholinesterase, this compound showed an IC50 of 3.98 µM.
Compound `COc1ccc2c(N)c3c(nc2c1)CCCC3O` (stereo not given) had a 50% lethal dose (LD50) in “in vivo” above 80 mg/kg. At Acetylcholinesterase, this compound returned an IC50 of 2 µM.
Turning to `Cc1ccc(CNc2c3c(nc4ccccc24)CCCC3O)cc1` (stereo not given), the IC50 worked out at 2.2 µM in data set [1], 1.1 µM in data set [2], 8 µM in data set [3] and 21 µM against Acetylcholinesterase. In addition, in the data set “in vivo”, the LD50 was above 80 mg/kg.
Consider `Nc1c2c(nc3cc(Cl)ccc13)CCCC2O` (stereo not given), for which the IC50 is above 20 µM in data set [1], above 20 µM in data set [2], above 20 µM in [3] and 0.0117 µM against Acetylcholinesterase. Also, in the data set “in vivo”, the LD50 is above 10 mg/kg. Also, the Animals worked out at 7% in the data set listed under Mus musculus [4]; 0% in the data set filed under Mus musculus [5]; 16% in the data set listed under Mus musculus [6]; 7% in the data set filed under Mus musculus [7]; 7% in the data set filed under Mus musculus [8]; 0% in the data set listed under Mus musculus [9].
As for `OC1CCCc2nc3ccccc3c(NCCCC(c3ccccc3)c3ccccc3)c21` (stereo not given), the IC50 in data set [1] worked out at 2.1 µM; in data set [2], 1.5 µM; in data set [3], 5.7 µM; at Acetylcholinesterase it was 49.3 µM. Moreover, the LD50 in “in vivo” is above 80 mg/kg. In addition, the Animals is on record as 20% in the data set filed under Mus musculus [4]; 0% in the data set filed under Mus musculus [5]; 6% in the data set filed under Mus musculus [6]; 6% in the data set filed under Mus musculus [7]; 13% in the data set filed under Mus musculus [8]; 6% in the data set filed under Mus musculus [9].
